Values of other authors in US12281362B2, “Diagnostic tools and treatments for clear cell renal cell carcinoma” (University of Cincinnati, priority 2020, dated 2025).

Columns and labels:
[1] = clinic
localized RCC = conditions: adjuvant setting

Structure (SMILES) | adverse effects [1] | survival (localized RCC)
CCN(CC)CCNC(=O)c1c(C)[nH]c(/C=C2\C(=O)Nc3ccc(F)cc32)c1C [Sunitinib] | serious adverse effects | 
CNC(=O)c1cc(Oc2ccc(NC(=O)Nc3ccc(Cl)c(C(F)(F)F)c3)cc2)ccn1 [sorafenib] |  | did not improve survival
